Results: PubChem BioAssay AID192 (DTP/NCI, 2004)
Toxic doses and inconclusive results are not listed. Rule for the calls: active = survival T/C of 150% or more; inactive = T/C below 125% in these data.

System: BDF1 mice, B16 melanoma ip, median survival T/C
Test: NCI In Vivo Anticancer Drug Screen. Data for tumor model B16 Melanoma (intraperitoneal) in B6D2F1 (BDF1) mice
Conditions: endpoint: median survival time, higher = longer survival
Outline: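 Vehicle-treated animals serve as the reference (C); treated animals (T) are scored for survival or tumor size after tumor transplantation.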

[1] = dose: 50.0 mg/kg/injection, schedule: Q01DX009 (ip), vehicle: saline with Tween-80
[2] = dose: 100.0 mg/kg/injection, schedule: Q01DX009 (ip), vehicle: saline with Tween-80
[3] = dose: 7.5 mg/kg/injection, schedule: Q01DX009 (ip), vehicle: saline
[4] = dose: 15.0 mg/kg/injection, schedule: Q01DX009 (ip), vehicle: saline
[5] = dose: 30.0 mg/kg/injection, schedule: Q01DX009 (ip), vehicle: saline
[6] = dose: 200.0 mg/kg/injection, schedule: Q01DX009 (ip), vehicle: saline with Tween-80
[7] = dose: 12.5 mg/kg/injection, schedule: Q01DX009 (ip), vehicle: Klucel (hydroxypropylcellulose) (HPC)
[8] = dose: 25.0 mg/kg/injection, schedule: Q01DX009 (ip), vehicle: Klucel (hydroxypropylcellulose) (HPC)
[9] = dose: 50.0 mg/kg/injection, schedule: Q01DX009 (ip), vehicle: Klucel (hydroxypropylcellulose) (HPC)
[10] = dose: 6.25 mg/kg/injection, schedule: Q01DX009 (ip), vehicle: saline
[11] = dose: 12.5 mg/kg/injection, schedule: Q01DX009 (ip), vehicle: saline
[12] = dose: 25.0 mg/kg/injection, schedule: Q01DX009 (ip), vehicle: saline
[13] = dose: 1.56 mg/kg/injection, schedule: Q01DX009 (ip), vehicle: saline
[14] = dose: 3.12 mg/kg/injection, schedule: Q01DX009 (ip), vehicle: saline
[15] = dose: 0.78 mg/kg/injection, schedule: Q01DX009 (ip), vehicle: Klucel (hydroxypropylcellulose) (HPC)
[16] = dose: 1.56 mg/kg/injection, schedule: Q01DX009 (ip), vehicle: Klucel (hydroxypropylcellulose) (HPC)
[17] = dose: 3.12 mg/kg/injection, schedule: Q01DX009 (ip), vehicle: Klucel (hydroxypropylcellulose) (HPC)
[18] = dose: 100.0 mg/kg/injection, schedule: Q01DX009 (ip), vehicle: Klucel (hydroxypropylcellulose) (HPC)
[19] = dose: 200.0 mg/kg/injection, schedule: Q01DX009 (ip), vehicle: Klucel (hydroxypropylcellulose) (HPC)
[20] = dose: 400.0 mg/kg/injection, schedule: Q01DX009 (ip), vehicle: Klucel (hydroxypropylcellulose) (HPC)

Measured: T/C

CCOC(=O)c1cc(C(=O)OCC)c(=O)oc1OCC
inactive: dose: 25.0 mg/kg/injection, schedule: Q01DX009 (ip), vehicle: saline with Tween-80 102 % of control | [1] 100 % of control | [2] 100 % of control

COCCNCCN1CCN(CCCN2c3ccccc3Sc3ccc(C(F)(F)F)cc32)CC1
inactive: dose: 3.75 mg/kg/injection, schedule: Q01DX009 (ip), vehicle: saline 109 % of control | [3] 107 % of control | [4] 111 % of control | [5] 88 % of control

CCCNCCN(CC)CC
inactive: [1] 107 % of control | [2] 100 % of control | [6] 99 % of control

O=C(Nc1cccc(C(F)(F)F)c1)c1cccc(C(=O)Nc2cccc(C(F)(F)F)c2)c1
inactive: [7] 101 % of control | [8] 106 % of control | [9] 108 % of control

O=C1OC2CC1(O)CC(O)C2O (stereo not drawn)
inactive: [10] 111 % of control | [11] 92 % of control | [12] 101 % of control | dose: 50.0 mg/kg/injection, schedule: Q04DX003 (ip), vehicle: saline with Tween-80 103 % of control | dose: 100.0 mg/kg/injection, schedule: Q04DX003 (ip), vehicle: saline with Tween-80 97 % of control | dose: 200.0 mg/kg/injection, schedule: Q04DX003 (ip), vehicle: saline with Tween-80 94 % of control

CN1C2CCC1CC(OC(c1ccccc1)c1ccccc1)C2 (stereo not drawn)
inactive: [13] 102 % of control | [14] 107 % of control | [10] 107 % of control | [11] 110 % of control | [12] 107 % of control

CC1(C)OCC(C2CCC3(C)C4=CCC5C(C)(C)C(O)CCC5(C)C4CCC23C)CC(O)C1O (stereo not drawn)
inactive: dose: 5.0 mg/kg/injection, schedule: Q01DX009 (ip), vehicle: Klucel (hydroxypropylcellulose) (HPC) 118 % of control | dose: 10.0 mg/kg/injection, schedule: Q01DX009 (ip), vehicle: Klucel (hydroxypropylcellulose) (HPC) 102 % of control

O=C(O)C(O)C(O)C1[O][Sb][O]C1CO (stereo not drawn)
inactive: dose: 5.0 mg/kg/injection, schedule: Q01DX009 (ip), vehicle: saline 96 % of control | dose: 100.0 mg/kg/injection, schedule: Q01DX009 (ip), vehicle: saline 100 % of control | dose: 200.0 mg/kg/injection, schedule: Q01DX009 (ip), vehicle: saline 88 % of control

C1CCC(=NN=C2CCCCC2)CC1
inactive: dose: 50.0 mg/kg/injection, schedule: Q04DX003 (sc), vehicle: olive oil, sesame oil, peanut oil 111 % of control | dose: 100.0 mg/kg/injection, schedule: Q04DX003 (sc), vehicle: olive oil, sesame oil, peanut oil 95 % of control | dose: 200.0 mg/kg/injection, schedule: Q04DX003 (sc), vehicle: olive oil, sesame oil, peanut oil 102 % of control

CCCC(=O)OC1C=C2N3C(=O)C4CC56C(=CC(OC(C)=O)C7OC75)N4C(=O)C3CC26C2OC12 (stereo not drawn)
inactive: dose: 0.13 mg/kg/injection, schedule: Q01DX009 (ip), vehicle: Klucel (hydroxypropylcellulose) (HPC) 90 % of control | dose: 0.25 mg/kg/injection, schedule: Q01DX009 (ip), vehicle: Klucel (hydroxypropylcellulose) (HPC) 101 % of control | dose: 0.5 mg/kg/injection, schedule: Q01DX009 (ip), vehicle: Klucel (hydroxypropylcellulose) (HPC) 90 % of control

CC1=C2CC(C)(C)/C=C\C(=O)/C(C)=C\C3=C[C@H](C)C[C@]3(O2)C1=O
inactive: dose: 1.5 mg/kg/injection, schedule: Q01DX009 (ip), vehicle: saline 93 % of control | dose: 3.0 mg/kg/injection, schedule: Q01DX009 (ip), vehicle: saline 100 % of control | dose: 6.0 mg/kg/injection, schedule: Q01DX009 (ip), vehicle: saline 100 % of control | dose: 12.0 mg/kg/injection, schedule: Q01DX009 (ip), vehicle: saline 106 % of control | dose: 16.0 mg/kg/injection, schedule: Q01DX009 (ip), vehicle: saline with Tween-80 97 % of control | dose: 32.0 mg/kg/injection, schedule: Q01DX009 (ip), vehicle: saline with Tween-80 92 % of control

CN(C)S(=O)(=O)c1ccc2c(c1)N(CCCN1CCN(S(C)(=O)=O)CC1)c1ccccc1S2
inactive: [15] 87 % of control | [16] 90 % of control | [17] 90 % of control | [7] 95 % of control

CN(/N=N/c1nc[nH]c1C(N)=O)C(C)(C)C
inactive: dose: 18.75 mg/kg/injection, schedule: Q04DX002 (ip), vehicle: Klucel (hydroxypropylcellulose) (HPC) 101 % of control | dose: 37.5 mg/kg/injection, schedule: Q04DX002 (ip), vehicle: Klucel (hydroxypropylcellulose) (HPC) 107 % of control | dose: 75.0 mg/kg/injection, schedule: Q04DX002 (ip), vehicle: Klucel (hydroxypropylcellulose) (HPC) 98 % of control | [18] 95 % of control | dose: 150.0 mg/kg/injection, schedule: Q04DX002 (ip), vehicle: Klucel (hydroxypropylcellulose) (HPC) 101 % of control | [19] 90 % of control | dose: 300.0 mg/kg/injection, schedule: Q04DX002 (ip), vehicle: Klucel (hydroxypropylcellulose) (HPC) 93 % of control | [20] 104 % of control

CS(=O)(=O)OCC(=O)NCC(O)CNC(=O)COS(C)(=O)=O
inactive: [1] 109 % of control | [2] 104 % of control | [6] 115 % of control

Clc1ccc(NC2=NCCCS2)c2ccccc12
inactive: [8] 105 % of control | [9] 92 % of control | [18] 95 % of control

CCOP(=O)(O)CC(=O)NC(CC(=O)O)C(=O)O (stereo not drawn)
inactive: [7] 97 % of control | [8] 101 % of control | [9] 92 % of control | [18] 92 % of control | [19] 97 % of control | [20] 94 % of control

COC1C(O)=C2C(=O)OC(C)(O)/C=C/C=C\C=C/C=C/C(c3ccccc3)NC(=O)/C=C/C=C/C=C/C=C/C2(C)C1O (stereo not drawn)
inactive: dose: 0.39 mg/kg/injection, schedule: Q01DX009 (ip), vehicle: Klucel (hydroxypropylcellulose) (HPC) 103 % of control | [15] 104 % of control | [16] 96 % of control | dose: 1.56 mg/kg/injection, schedule: Q01DX009 (ip), vehicle: other 104 % of control | [17] 106 % of control | dose: 3.12 mg/kg/injection, schedule: Q01DX009 (ip), vehicle: other 103 % of control | dose: 6.25 mg/kg/injection, schedule: Q01DX009 (ip), vehicle: other 101 % of control | dose: 12.5 mg/kg/injection, schedule: Q01DX009 (ip), vehicle: other 97 % of control

O=C(O)CC(NC(=O)OCc1ccccc1)C(=O)O (stereo not drawn)
inactive: [13] 98 % of control | [14] 104 % of control | [10] 92 % of control

Cc1[nH]c(N)nc(=S)c1CCC(=O)Nc1ccc(C(=O)NC(CCC(=O)O)C(=O)O)cc1 (stereo not drawn)
inactive: [1] 101 % of control | [2] 101 % of control | [6] 100 % of control | dose: 400.0 mg/kg/injection, schedule: Q01DX009 (ip), vehicle: saline with Tween-80 110 % of control

NCCCC(NN)C(=O)O (stereo not drawn)
inactive: [3] 109 % of control | [4] 111 % of control | [5] 104 % of control

Cc1ccc(S(=O)(=O)N/N=C/c2ccccc2)cc1
inactive: dose: 50.0 mg/kg/injection, schedule: Q01DX009 (ip), vehicle: other 104 % of control | dose: 100.0 mg/kg/injection, schedule: Q01DX009 (ip), vehicle: other 110 % of control | dose: 200.0 mg/kg/injection, schedule: Q01DX009 (ip), vehicle: other 103 % of control | dose: 400.0 mg/kg/injection, schedule: Q01DX009 (ip), vehicle: other 106 % of control

CN(C)CC/C=C1\c2ccccc2Sc2ccc(C(F)(F)F)cc21
inactive: dose: 0.19 mg/kg/injection, schedule: Q01DX009 (ip), vehicle: saline 105 % of control | dose: 0.39 mg/kg/injection, schedule: Q01DX009 (ip), vehicle: saline 122 % of control | dose: 0.78 mg/kg/injection, schedule: Q01DX009 (ip), vehicle: saline 111 % of control | [13] 108 % of control | [14] 105 % of control | dose: 6.12 mg/kg/injection, schedule: Q01DX009 (ip), vehicle: saline 90 % of control
